Assay results: patent publication US9096500B2, “Acyl sulfonamide compounds” (Pfizer Limited, priority 2010, dated 2015)

Target: T1, Nav1.7 (or SCN9A) channel (Homo sapiens, UniProt Q15858)
T1 construct: expressed in transfected cells
Test: Nav1.7 (hSCN9A) electrophysiology assay, PatchXpress platform
Assay type: cell-based
Details: estimated IC50 from single point electrophysiology data, HEK cells stably expressing hSCN9A, held at V1/2 of inactivation, read-out: Nav1.7 EIC50
How it was run: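 HEK cells stably expressing hSCN9A were recorded by whole-cell voltage clamp, including on PatchXpress, at 22–24°C with extracellular solution at pH 7.4. A 20 msec step to 0 mV followed an 8 s conditioning prepulse to the empirically determined inactivation V1/2. Inhibition was taken from current amplitude before vs after compound.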

T1 sequence (Q15858 whole entry): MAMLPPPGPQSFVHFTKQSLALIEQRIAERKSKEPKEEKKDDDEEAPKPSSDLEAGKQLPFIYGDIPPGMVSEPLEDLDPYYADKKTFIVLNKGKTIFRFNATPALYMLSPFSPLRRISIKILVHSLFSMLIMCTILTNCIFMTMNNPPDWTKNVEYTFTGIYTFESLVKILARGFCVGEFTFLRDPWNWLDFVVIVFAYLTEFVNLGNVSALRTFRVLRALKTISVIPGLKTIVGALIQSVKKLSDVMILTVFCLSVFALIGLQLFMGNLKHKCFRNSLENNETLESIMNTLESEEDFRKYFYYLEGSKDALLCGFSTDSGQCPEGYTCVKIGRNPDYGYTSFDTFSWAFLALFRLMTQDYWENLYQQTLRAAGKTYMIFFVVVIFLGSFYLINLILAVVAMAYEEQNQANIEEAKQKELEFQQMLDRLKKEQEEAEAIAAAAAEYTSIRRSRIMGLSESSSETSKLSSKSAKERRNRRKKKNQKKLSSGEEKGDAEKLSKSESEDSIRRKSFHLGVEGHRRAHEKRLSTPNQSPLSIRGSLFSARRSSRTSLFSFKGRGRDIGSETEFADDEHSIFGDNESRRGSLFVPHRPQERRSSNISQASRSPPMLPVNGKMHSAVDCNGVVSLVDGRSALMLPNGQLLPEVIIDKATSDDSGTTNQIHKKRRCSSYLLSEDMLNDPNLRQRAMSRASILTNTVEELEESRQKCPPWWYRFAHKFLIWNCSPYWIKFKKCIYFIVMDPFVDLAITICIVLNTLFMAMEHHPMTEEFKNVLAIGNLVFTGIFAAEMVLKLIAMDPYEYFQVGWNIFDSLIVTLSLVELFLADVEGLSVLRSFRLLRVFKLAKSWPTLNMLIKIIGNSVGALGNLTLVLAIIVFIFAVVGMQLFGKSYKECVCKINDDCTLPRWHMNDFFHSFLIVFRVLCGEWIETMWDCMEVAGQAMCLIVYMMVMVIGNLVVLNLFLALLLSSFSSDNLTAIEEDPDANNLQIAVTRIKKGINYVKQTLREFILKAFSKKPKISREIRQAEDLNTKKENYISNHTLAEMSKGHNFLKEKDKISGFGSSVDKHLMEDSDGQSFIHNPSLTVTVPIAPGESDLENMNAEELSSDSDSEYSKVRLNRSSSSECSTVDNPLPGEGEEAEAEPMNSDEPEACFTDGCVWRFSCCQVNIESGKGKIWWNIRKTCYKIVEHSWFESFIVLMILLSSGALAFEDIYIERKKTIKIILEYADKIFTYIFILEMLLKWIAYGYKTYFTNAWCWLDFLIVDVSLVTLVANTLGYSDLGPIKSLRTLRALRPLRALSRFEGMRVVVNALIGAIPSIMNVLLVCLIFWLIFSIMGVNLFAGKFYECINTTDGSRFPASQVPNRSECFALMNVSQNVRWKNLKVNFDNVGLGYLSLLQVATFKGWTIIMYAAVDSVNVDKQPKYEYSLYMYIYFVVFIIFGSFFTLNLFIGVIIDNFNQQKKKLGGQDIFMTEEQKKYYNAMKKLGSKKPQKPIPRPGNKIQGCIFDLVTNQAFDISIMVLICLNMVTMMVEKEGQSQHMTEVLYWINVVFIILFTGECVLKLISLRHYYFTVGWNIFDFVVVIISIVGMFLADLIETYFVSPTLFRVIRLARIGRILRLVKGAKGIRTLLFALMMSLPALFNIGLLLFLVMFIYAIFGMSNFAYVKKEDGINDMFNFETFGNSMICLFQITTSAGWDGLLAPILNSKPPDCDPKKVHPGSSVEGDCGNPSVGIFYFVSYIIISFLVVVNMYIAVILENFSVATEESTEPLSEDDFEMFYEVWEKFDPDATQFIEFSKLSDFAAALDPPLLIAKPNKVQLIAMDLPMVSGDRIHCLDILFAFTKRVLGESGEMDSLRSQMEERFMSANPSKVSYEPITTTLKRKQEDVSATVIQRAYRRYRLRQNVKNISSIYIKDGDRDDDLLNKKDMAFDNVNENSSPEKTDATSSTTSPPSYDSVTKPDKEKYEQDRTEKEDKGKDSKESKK

## CCC(C)S(=O)(=O)NC(=O)c1cc(F)c(COc2ccc(Cl)c(Cl)c2)cc1F (stereo not drawn) [Example 23, N-(sec-Butylsulfonyl)-4-((3,4-dichlorophenoxy)methyl)-2,5-difluorobenzamide]
  IC50: 380 nM

## CS(=O)(=O)NC(=O)c1ccc(COc2ccc(C(F)(F)F)cc2-c2ccnnc2)cc1 [Example 26, N-(methylsulfonyl)-4-{[2-pyridazin-4-yl-4-(trifluoromethyl)phenoxy]methyl}benzamide]
  IC50: 78 nM

## Cc1cc(OCc2cc(F)c(C(=O)NS(C)(=O)=O)cc2F)ccc1Cl [Example 159, 4-[(4-chloro-3-methylphenoxy)methyl]-2,5-difluoro-N-(methylsulfonyl)benzamide]
  IC50: 130 nM

## COc1ccc(COc2cc(F)c(C(=O)NS(C)(=O)=O)cc2F)cc1 [Example 198, 2,5-difluoro-4-[(4-methoxybenzyl)oxy]-N-(methylsulfonyl)benzamide]
  IC50: > 1000 nM

## CS(=O)(=O)NC(=O)c1cc(F)c(COc2ccc(C(F)(F)F)cc2)cc1F [Example 141, 2,5-difluoro-N-(methylsulfonyl)-4-{[4-(trifluoromethyl)phenoxy]methyl}benzamide]
  IC50: 330 nM

## Cc1ccc(COc2cc(F)c(C(=O)NS(C)(=O)=O)cc2F)cc1 [Example 196, 2,5-difluoro-4-[(4-methylbenzyl)oxy]-N-(methylsulfonyl)benzamide]
  IC50: > 1000 nM

## CS(=O)(=O)NC(=O)c1cc(F)c(COc2ccc(F)c(F)c2)cc1F [Example 48, 4-[(3,4-Difluorophenoxy)methyl]-2,5-difluoro-N-(methylsulfonyl)benzamide]
  IC50: 1100 nM

## CS(=O)(=O)NC(=O)c1cc(F)c(COc2ccc(Cl)c(F)c2)cc1F [Example 49, 4-[(4-Chloro-3-fluorophenoxy)methyl]-2,5-difluoro-N-(methylsulfonyl)benzamide]
  IC50: 160 nM

## CS(=O)(=O)NC(=O)c1cc(F)c(OCc2ccc3ccccc3c2)cc1F [Example 227, 2,5-difluoro-N-(methylsulfonyl)-4-(2-naphthylmethoxy)benzamide]
  IC50: 940 nM

## COc1ccc(Cl)cc1COc1cc(F)c(C(=O)NS(C)(=O)=O)cc1F [Example 230, 4-[(5-chloro-2-methoxybenzyl)oxy]-2,5-difluoro-N-(methylsulfonyl)benzamide]
  IC50: 2200 nM

## COc1cc(OCc2cc(F)c(C(=O)NS(C)(=O)=O)cc2F)ccc1-n1cccn1 [Example 139, 2,5-difluoro-4-{[3-methoxy-4-(1H-pyrazol-1-yl)phenoxy]methyl}-N-(methylsulfonyl)benzamide]
  IC50: > 3000 nM

## CS(=O)(=O)NC(=O)c1cc(F)c(COc2cccc(C#N)c2)cc1F [Example 154, 4-[(3-cyanophenoxy)methyl]-2,5-difluoro-N-(methylsulfonyl)benzamide]
  IC50: 11000 nM

## CS(=O)(=O)NC(=O)c1cc(F)c(COc2ccc3ccccc3c2)cc1F [Example 130, 2,5-difluoro-N-(methylsulfonyl)-4-[(2-naphthyloxy)methyl]benzamide]
  IC50: 240 nM

## CS(=O)(=O)NC(=O)c1cc(F)c(COc2cc(F)cc(F)c2)cc1F [Example 118, 4-[(3,5-difluorophenoxy)methyl]-2,5-difluoro-N-(methylsulfonyl)benzamide]
  IC50: > 1000 nM

## CS(=O)(=O)NC(=O)c1cc(F)c(COc2c(F)cccc2Cl)cc1F [Example 149, 4-[(2-chloro-6-fluorophenoxy)methyl]-2,5-difluoro-N-(methylsulfonyl)benzamide]
  IC50: 4000 nM

## COc1ccc2cccc(OCc3cc(F)c(C(=O)NS(C)(=O)=O)cc3F)c2c1 [Example 156, 2,5-difluoro-4-{[(7-methoxy-1-naphthyl)oxy]methyl}-N-(methylsulfonyl)benzamide]
  IC50: 2300 nM

## CS(=O)(=O)NC(=O)c1cc(F)c(COc2ccc(F)cc2)cc1F [Example 158, 2,5-difluoro-4-[(4-fluorophenoxy)methyl]-N-(methylsulfonyl)benzamide]
  IC50: 1500 nM

## CS(=O)(=O)NC(=O)c1ccc(OCc2cccc(Br)c2)cc1 [Example 21, 4-(3-Bromobenzyloxy)-N-(methylsulfonyl)benzamide]
  IC50: 710 nM

## CC(C)c1ccc(OCc2cc(F)c(C(=O)NS(C)(=O)=O)cc2F)cc1 [Example 147, 2,5-difluoro-4-[(4-isopropylphenoxy)methyl]-N-(methylsulfonyl)benzamide]
  IC50: 170 nM

## CS(=O)(=O)NC(=O)c1cc(Cl)c(COc2ccc(Cl)c(OC(F)(F)F)c2)cc1F [Example 63, 5-Chloro-4-{[4-chloro-3-(trifluoromethoxy)phenoxy]methyl}-2-fluoro-N-(methylsulfonyl)benzamide]
  IC50: 35 nM

## CS(=O)(=O)NC(=O)c1cc(F)c(COc2ccc(Cl)cc2-c2ccno2)cc1F [Example 148, 4-[(4-chloro-2-isoxazol-5-ylphenoxy)methyl]-2,5-difluoro-N-(methylsulfonyl)benzamide]
  IC50: > 1000 nM

## CS(=O)(=O)NC(=O)c1ccc(COc2ccc(Cl)c(Cl)c2)cc1 [Example 28, 4-[(3,4-Dichlorophenoxy)methyl]-N-(methylsulfonyl)benzamide]
  IC50: 58 nM

## COc1cc(OCc2ccc(Cl)c(Cl)c2)ccc1C(=O)NS(C)(=O)=O [Example 12, 4-[(3,4-Dichlorobenzyl)oxy]-2-methoxy-N-(methylsulfonyl)benzamide]
  IC50: 12000 nM

## COc1ccc(Cl)c(OCc2cc(F)c(C(=O)NS(C)(=O)=O)cc2F)c1 [Example 122, 4-[(2-chloro-5-methoxyphenoxy)methyl]-2,5-difluoro-N-(methylsulfonyl)benzamide]
  IC50: 2200 nM

## CS(=O)(=O)NC(=O)c1ccc(OCc2cc(F)cc(F)c2)cc1 [Example 187, 4-[(3,5-difluorobenzyl)oxy]-N-(methylsulfonyl)benzamide]
  IC50: 4200 nM

## CS(=O)(=O)NC(=O)c1ccc(OCc2ccc(-c3ccccc3)cc2)cc1 [Example 85, 4-(biphenyl-4-ylmethoxy)-N-(methylsulfonyl)benzamide]
  IC50: 450 nM

## CS(=O)(=O)NC(=O)c1ccc(COc2cccc(C3CCNCC3)c2)cc1 [Example 35, N-(Methylsulfonyl)-4-[(3-piperidin-4-ylphenoxy)methyl]benzamide]
  IC50: > 3000 nM

## COc1ccc(OCc2cc(F)c(C(=O)NS(C)(=O)=O)cc2F)c(C#N)c1 [Example 146, 4-[(2-cyano-4-methoxyphenoxy)methyl]-2,5-difluoro-N-(methylsulfonyl)benzamide]
  IC50: > 1000 nM

## CS(=O)(=O)NC(=O)c1cc(F)c(OCC2CCC2)cc1F [Example 197, 4-(cyclobutylmethoxy)-2,5-difluoro-N-(methylsulfonyl)benzamide]
  IC50: > 1000 nM

## COc1cc(COc2ccc(C(=O)NS(C)(=O)=O)cc2)ccc1F [Example 185, 4-[(4-fluoro-3-methoxybenzyl)oxy]-N-(methylsulfonyl)benzamide]
  IC50: > 1000 nM

## CS(=O)(=O)NC(=O)c1cc(F)c(COc2ccc3cc(C#N)ccc3c2)cc1F [Example 99, 4-{[(6-cyano-2-naphthyl)oxy]methyl}-2,5-difluoro-N-(methylsulfonyl)benzamide]
  IC50: 820 nM

## CS(=O)(=O)NC(=O)c1ccc(OCc2cccc(OC(F)(F)F)c2)cc1 [Example 92, N-(methylsulfonyl)-4-{[3-(trifluoromethoxy)benzyl]oxy}benzamide]
  IC50: 590 nM

## CS(=O)(=O)NC(=O)c1ccc(OCc2cc(Cl)cc(Cl)c2)cc1 [Example 173, 4-[(3,5-dichlorobenzyl)oxy]-N-(methylsulfonyl)benzamide]
  IC50: 250 nM
